This experiment deals with T1, 5-HT1D-like receptor (rabbit isolated saphenous vein) (Oryctolagus cuniculus, UniProt P49144).
T1 construct: contracting the rabbit saphenous vein; from tissue; host or cells: rabbit saphenous vein rings, endothelium removed
Briefly: Agonist Assay: contraction of the rabbit isolated saphenous vein (5-HT1D-like receptor agonist activity). It is filed as cell-based, rabbit (male New Zealand White).

Where two headings read alike, the source gives them in different places.

T1 sequence (P49144 whole entry): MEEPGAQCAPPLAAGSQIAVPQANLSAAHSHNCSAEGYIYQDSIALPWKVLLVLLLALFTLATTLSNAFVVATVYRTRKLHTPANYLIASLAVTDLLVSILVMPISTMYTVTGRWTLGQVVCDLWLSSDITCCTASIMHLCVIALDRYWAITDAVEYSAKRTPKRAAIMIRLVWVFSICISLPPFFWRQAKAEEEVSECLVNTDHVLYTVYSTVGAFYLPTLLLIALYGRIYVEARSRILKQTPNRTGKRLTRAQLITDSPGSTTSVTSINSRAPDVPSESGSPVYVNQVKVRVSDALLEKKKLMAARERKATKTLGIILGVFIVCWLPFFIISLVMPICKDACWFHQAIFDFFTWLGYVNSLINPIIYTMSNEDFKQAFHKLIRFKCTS

One may read the EC50 as the concentration at which the effect is half-maximal. Regarding `C=Cc1ccc2[nH]cc(CCN(C)C)c2c1` [Example 7a, 3-[2-(N,N-Dimethylamino)ethyl]-5-vinyl-1H-indole], a half-maximal response (EC50) required 130 nM.
Take `C=Cc1ccc2[nH]cc(CCN3CCCC3)c2c1` [Example 7b, 3-[2-(N-Pyrrolidinyl)ethyl]-5-vinyl-1H-indole]: the EC50 turned out to be 5800 nM.
On the same count and under the same terms, the same measure for `C=Cc1ccc2[nH]cc(C[C@H]3CCCN3C)c2c1` [Example 7c, (R)-3-[(N-Methylpyrrolidin-2-yl)methyl]-5-vinyl-1H-indole]: 80 nM.
Turning to `C=Cc1ccc2[nH]cc(C3CCN(C)C3)c2c1` (stereo not shown) [Example 7d, 3-(N-Methylpyrrolidin-3-yl)-5-vinyl-1H-indole], under “contraction of rabbit isolated saphenous vein, concentration causing 50% of the maximum contraction effected by the compound, prazosin, idazoxan and indomethacin 1 μM each, 37° C., pH 7.4, read-out: EC50”, the EC50 is 180 nM.
